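In this assay, cells in 96-well plates receive the compound at five concentrations for 48 hours. Endpoints are linearly interpolated between the surrounding concentrations. At the GI50, growth is halved. Definition used: TGI = concentration required for complete inhibition of growth.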
Assays:
Experiment in all cases: DTP human tumour cell line panel, 48 h
CAKI-1 renal = test system: CAKI-1 renal
MDA-MB-435 = test system: MDA-MB-435
HS 578T breast = test system: HS 578T breast
MOLT-4 leukemia = test system: MOLT-4 leukemia
PC-3 prostate = test system: PC-3 prostate
ACHN renal = test system: ACHN renal
UACC-257 melanoma = test system: UACC-257 melanoma
KM12 colon = test system: KM12 colon
CCRF-CEM leukemia = test system: CCRF-CEM leukemia
SN12C renal = test system: SN12C renal
SF-268 CNS = test system: SF-268 CNS
SK-OV-3 ovarian = test system: SK-OV-3 ovarian
DU-145 prostate = test system: DU-145 prostate
NCI-H226 lung = test system: NCI-H226 lung
LOX IMVI melanoma = test system: LOX IMVI melanoma
EKVX NSCLC = test system: EKVX NSCLC
U251 CNS = test system: U251 CNS
OVCAR-8 ovarian = test system: OVCAR-8 ovarian
M14 melanoma = test system: M14 melanoma
HCC-2998 colon = test system: HCC-2998 colon
UO-31 renal = test system: UO-31 renal
NCI/ADR-RES ovarian = test system: NCI/ADR-RES ovarian
MDA-MB-231 breast = test system: MDA-MB-231 breast
UACC-62 melanoma = test system: UACC-62 melanoma
SK-MEL-5 melanoma = test system: SK-MEL-5 melanoma
SNB-19 CNS = test system: SNB-19 CNS
HCT-116 colon = test system: HCT-116 colon
OVCAR-3 ovarian = test system: OVCAR-3 ovarian
SNB-75 CNS = test system: SNB-75 CNS
SK-MEL-28 melanoma = test system: SK-MEL-28 melanoma
HOP-92 NSCLC = test system: HOP-92 NSCLC
HL-60(TB) leukemia = test system: HL-60(TB) leukemia
A549 NSCLC = test system: A549 NSCLC
786-0 renal = test system: 786-0 renal
RXF 393 renal = test system: RXF 393 renal
OVCAR-4 ovarian = test system: OVCAR-4 ovarian
SF-539 CNS = test system: SF-539 CNS
K-562 leukemia = test system: K-562 leukemia
HOP-62 NSCLC = test system: HOP-62 NSCLC
T-47D breast = test system: T-47D breast
BT-549 breast = test system: BT-549 breast
NCI-H23 lung = test system: NCI-H23 lung
NCI-H522 lung = test system: NCI-H522 lung
SW-620 colon = test system: SW-620 colon
COLO 205 colon = test system: COLO 205 colon
HCT-15 colon = test system: HCT-15 colon
OVCAR-5 ovarian = test system: OVCAR-5 ovarian
SF-295 CNS = test system: SF-295 CNS
MALME-3M melanoma = test system: MALME-3M melanoma
IGROV1 ovarian = test system: IGROV1 ovarian
SR leukemia = test system: SR leukemia
RPMI-8226 leukemia = test system: RPMI-8226 leukemia
TK-10 renal = test system: TK-10 renal
HT29 colon = test system: HT29 colon
SK-MEL-2 melanoma = test system: SK-MEL-2 melanoma
MCF7 breast = test system: MCF7 breast
NCI-H460 lung = test system: NCI-H460 lung

For `COC1[C@@H]2C[C@H]3C(C)(C)O[C@@](C/C=C(/C)C(=O)O)(C2=O)[C@]32Oc3c(CC=C(C)C)c4c(c(O)c3C(=O)[C@H]12)C=CC(C)(C)O4` (some centres undefined), the GI50 (CAKI-1 renal) was 16.5 µM, the TGI (CAKI-1 renal) was 33.1 µM and the GI50 (MDA-MB-435) was 11.6 µM. The TGI (MDA-MB-435) was 27.8 µM, the GI50 (HS 578T breast) was 9.58 µM and the TGI (HS 578T breast) was 78 µM. It also gave a GI50 (MOLT-4 leukemia) of 3.61 µM, a TGI (MOLT-4 leukemia) of 36.8 µM and a GI50 (PC-3 prostate) of 6.03 µM. It also gave a TGI (PC-3 prostate) of 22.2 µM, a GI50 (ACHN renal) of 4.91 µM and a TGI (ACHN renal) of 18.4 µM. For the same compound, the GI50 (UACC-257 melanoma) was 14.7 µM, the TGI (UACC-257 melanoma) was 35.8 µM and the GI50 (KM12 colon) was 14.5 µM. The TGI (KM12 colon) was 31.1 µM, the GI50 (CCRF-CEM leukemia) was 3.73 µM and the TGI (CCRF-CEM leukemia) was 53.1 µM. For the same compound, the GI50 (SN12C renal) was 6.85 µM, the TGI (SN12C renal) was 29.7 µM and the GI50 (SF-268 CNS) was 12.8 µM. It also gave a TGI (SF-268 CNS) of 31.7 µM, a GI50 (SK-OV-3 ovarian) of 23.4 µM and a TGI (SK-OV-3 ovarian) of 53.4 µM. The GI50 (DU-145 prostate) was 13.2 µM, the TGI (DU-145 prostate) was 26.1 µM and the GI50 (NCI-H226 lung) was 18.9 µM. The TGI (NCI-H226 lung) was 44.8 µM, the GI50 (LOX IMVI melanoma) was 2.15 µM and the TGI (LOX IMVI melanoma) was 5.31 µM. For the same compound, the GI50 (EKVX NSCLC) was 10.3 µM, the TGI (EKVX NSCLC) was 28.9 µM and the GI50 (U251 CNS) was 4.35 µM. It also gave a TGI (U251 CNS) of 16.1 µM, a GI50 (OVCAR-8 ovarian) of 6.82 µM and a TGI (OVCAR-8 ovarian) of 29.5 µM. For the same compound, the GI50 (M14 melanoma) was 6.57 µM, the TGI (M14 melanoma) was 24.4 µM and the GI50 (HCC-2998 colon) was 16.8 µM. The TGI (HCC-2998 colon) was 34.4 µM, the GI50 (UO-31 renal) was 6.73 µM and the TGI (UO-31 renal) was 21.3 µM. For the same compound, the GI50 (NCI/ADR-RES ovarian) was 15.2 µM, the TGI (NCI/ADR-RES ovarian) was greater than 100 µM and the GI50 (MDA-MB-231 breast) was 6.56 µM. It also gave a TGI (MDA-MB-231 breast) of 27.6 µM, a GI50 (UACC-62 melanoma) of 13.2 µM and a TGI (UACC-62 melanoma) of 29.4 µM. The GI50 (SK-MEL-5 melanoma) was 12.5 µM, the TGI (SK-MEL-5 melanoma) was 25.9 µM and the GI50 (SNB-19 CNS) was 15.6 µM. The TGI (SNB-19 CNS) was 30.7 µM, the GI50 (HCT-116 colon) was 3.07 µM and the TGI (HCT-116 colon) was 9.71 µM. The GI50 (OVCAR-3 ovarian) was 3.77 µM, the TGI (OVCAR-3 ovarian) was 14.9 µM and the GI50 (SNB-75 CNS) was 19.2 µM. For the same compound, the TGI (SNB-75 CNS) was 54.3 µM, the GI50 (SK-MEL-28 melanoma) was 11.9 µM and the TGI (SK-MEL-28 melanoma) was 26.6 µM. It also gave a GI50 (HOP-92 NSCLC) of 10.1 µM, a TGI (HOP-92 NSCLC) of 25.9 µM and a GI50 (HL-60(TB) leukemia) of 1.53 µM. The TGI (HL-60(TB) leukemia) was 4.99 µM, the GI50 (A549 NSCLC) was 19.7 µM and the TGI (A549 NSCLC) was 49.9 µM. It also gave a GI50 (786-0 renal) of 2.49 µM, a TGI (786-0 renal) of 5.97 µM and a GI50 (RXF 393 renal) of 4.54 µM. The TGI (RXF 393 renal) was 18.2 µM, the GI50 (OVCAR-4 ovarian) was 12.1 µM and the TGI (OVCAR-4 ovarian) was 29.9 µM. For the same compound, the GI50 (SF-539 CNS) was 14.3 µM, the TGI (SF-539 CNS) was 28.5 µM and the GI50 (K-562 leukemia) was 3.92 µM. The TGI (K-562 leukemia) was 31.4 µM, the GI50 (HOP-62 NSCLC) was 16.3 µM and the TGI (HOP-62 NSCLC) was 32.4 µM. For the same compound, the GI50 (T-47D breast) was 3.14 µM, the TGI (T-47D breast) was 17.6 µM and the GI50 (BT-549 breast) was 2.47 µM. It also gave a TGI (BT-549 breast) of 7.1 µM, a GI50 (NCI-H23 lung) of 16.4 µM and a TGI (NCI-H23 lung) of 50.6 µM. The GI50 (NCI-H522 lung) was 15.3 µM, the TGI (NCI-H522 lung) was 32.3 µM and the GI50 (SW-620 colon) was 3.05 µM. The TGI (SW-620 colon) was 10.8 µM, the GI50 (COLO 205 colon) was 17.2 µM and the TGI (COLO 205 colon) was 40.7 µM. It also gave a GI50 (HCT-15 colon) of 2.97 µM, a TGI (HCT-15 colon) of 13.5 µM and a GI50 (OVCAR-5 ovarian) of 20.1 µM. It also gave a TGI (OVCAR-5 ovarian) of 41.7 µM, a GI50 (SF-295 CNS) of 15.3 µM and a TGI (SF-295 CNS) of 34.8 µM. For the same compound, the GI50 (MALME-3M melanoma) was 14.2 µM, the TGI (MALME-3M melanoma) was 29.5 µM and the GI50 (IGROV1 ovarian) was 3.27 µM. The TGI (IGROV1 ovarian) was 10.7 µM, the GI50 (SR leukemia) was 2.43 µM and the TGI (SR leukemia) was greater than 100 µM. The GI50 (RPMI-8226 leukemia) was 2.56 µM, the TGI (RPMI-8226 leukemia) was 8.1 µM and the GI50 (TK-10 renal) was 18.8 µM. It also gave a TGI (TK-10 renal) of 33.5 µM, a GI50 (HT29 colon) of 10.2 µM and a TGI (HT29 colon) of 28.8 µM. The GI50 (SK-MEL-2 melanoma) was 19 µM, the TGI (SK-MEL-2 melanoma) was 42.1 µM and the GI50 (MCF7 breast) was 3.22 µM. It also gave a TGI (MCF7 breast) of 19.1 µM, a GI50 (NCI-H460 lung) of 8.15 µM and a TGI (NCI-H460 lung) of 25.8 µM.
